According to US5670619A, “Bradykinin-antagonists for the treatment of acute pancreatitis” (Hoechst Aktiengesellschaft, priority 1991, dated 1997):

How the values were obtained:
Format in all cases: in vivo
[1] = test system: bradykinin (injected, or split off from kininogen by kallikrein); assay: Inhibition of the fall in blood pressure evoked by bradykinin and kallikrein in anaesthetized rabbits; conditions: anaesthetized rabbit, peptide 3 nmol/kg i.v.
Protocol: Methods: Rabbits of either sex (3.5-5.0 kg) were anaesthetized with pentobarbitone sodium (35 mg/kg i.v.). Arterial blood pressure was monitored in a carotid artery using a Statham pressure transducer. I.v. injections of bradykinin (1 to 10 nmol/kg) or kallikrein (1 to 10 U/kg) were made into a jugular vein at intervals of 10 min. A peptide of the formula I (3 nmol/kg) was given i.v. and the injections of bradykinin or kallikrein were then repeated.

[2] = test system: caerulein-induced pancreatic oedema; assay: Pancreatic oedema (water and Evans blue content of pancreas) in caerulein-induced pancreatitis in rats; conditions: rat; for Pancreatic oedema: Evans blue / Pancreatic oedema: water: A s.c. 100 nmol/kg, mean ± SEM, n = 10
Source text: General methods: To induce experimental pancreatitis in animals, a number of procedures have been used including ligation of the pancreatic duct, injection of bile salts into the pancreatic duct, infusion of oleic acid, or infusion of the amphibian cholecystokinin analogue, caerulein. The latter procedure produces a hyperstimulation of the exocrine function of the pancreas and leads to morphological changes that share many features also seen in human acute pancreatitis (Willemer S., Bialek R., Kohler H. Adler G.; "Caerulein-induced acute pancreatitis in rats: changes in glycoprotein-composition of subcellular membrane systems in acinar cells;" Histochemistry 1990; 95; 87-96). Caerulein-induced pancreatitis in rats was used for the following experiments.
(§1) Method: Female Sprague-Dawley rats (260±30 g) were anaesthetized with pentobarbitone sodium (40 mg/kg, i.p.) and phenobarbitone sodium (160 mg/kg, i,p.). […] 10 min later, the animals were given a s.c. injection of a peptide of the formula I (100 nmol/kg) or of a corresponding volume (0.5 ml/kg) of a 154 mM sodium chloride solution. The systemic arterial blood pressure was monitored in a carotid artery using a Statham pressure transducer. A jugular vein was cannulated to allow the infusion of either caerulein (4 nmol/kg/h) or of physiological saline (0.034 ml/min). The infusion was started 30 min after the s.c. injection of a peptide of the formula I or saline, and lasted for 2 h. At the end of the experiment the animals were killed by decapitation; the blood was collected for the determination of serum amylase and lipase.
Method: Quantification of the pancreatic oedema was achieved by measuring the dry weight of pancreas and the accumulation of plasma proteins in pancreas. At the end of the infusions (see blood pressure experiments), the blood was collected for measuring enzymes in serum. The pancreas was excised and weighed. After drying the tissue, the difference between wet and dry weight, in relation to dry weight, was used as a measure for the water content of the tissue. 5 mg/kg of Evans blue, which quantitatively binds to serum albumin (Rawson R. A.: "The binding of T-1824 and structurally related diazo dyes by plasma proteins", Amer. J. Physiol. 1943, 138, 708-717) was injected i.v. immediately before the start of the i.v. infusion of caerulein or physiological saline. Thereafter the pancreatic tissue was used to measure Evans blue concentration photometrically (Gamse R., Holzer P., Lembeck F.: "Decrease of substance P in primary afferent neurones and impairment of neurogenic plasma extravasation by capsaicin", Br. J. Pharmacol. 1980, 68, 207-213; Saria A., Lundberg J. M.: "Evans blue fluorescence: quantitative and morphological evaluation of vascular permeability in animal tissues", J. Neurosci. Meth. 1983, 8, 41-49). Control animals were treated with corresponding volumes of saline instead of a peptide of the formula I or caerulein. Plasma extravasation was quantified as content of water and Evans blue in the pancreas.

[3] = test system: pancreatic enzymes in serum; assay: Serum amylase and lipase activities in caerulein-induced pancreatitis in rats; conditions: rat, A s.c., no CRL i.v., n = 6
Protocol: as §1
Methods: Serum amylase was determined using a kinetic colour test with 2-chlor-4-nitrophenyl-D-maltoheptoside (Amylase test kit Roche, F.R.G.). Serum lipase was measured by the reduction of the turbidity due to cleavage of triolein to monoglyceride and oleic acid (Monotest Lipase, Boehringer Mannheim, F.R.G.). The detection limits for amylase and lipase were 11 U/I and 16 U/l, respectively. Control animals were treated with corresponding volumes of saline instead of a peptide of the formula I.

[4] = test system: caerulein-induced increase of water and Evans blue content in the pancreas; assay: Comparison of peptide A with the Berg et al. antagonist, given after onset of caerulein infusion in rats; conditions: rat; given 10 minutes after the outset of the caerulein infusion; Berg antagonist in a dose 10 times higher than peptide A
Protocol: Additionally D-Arg^0 -HYP^3 -Thi^5.8 D-Phe^7 -BK disclosed by Berg et al. (see page 1) has been tested in comparision with the peptide A. Both antagonists were given in two groups of rats under identical conditions 10 minutes after the outset of the infusion of caerulein.

Compound: N=C(N)NCCC[C@@H](N)C(=O)N[C@@H](CCCNC(=N)N)C(=O)N1CCC[C@H]1C(=O)N1C[C@H](O)C[C@H]1C(=O)NCC(=O)N[C@@H](Cc1cccs1)C(=O)N[C@@H](CO)C(=O)N1Cc2ccccc2C[C@@H]1C(=O)N1[C@H](C(=O)N[C@@H](CCCNC(=N)N)C(=O)O)C[C@@H]2CCCC[C@@H]21 [peptide A, H-D-Arg-Arg-Pro-Hyp-Gly-Thi-Ser-D-Tic-Oic-Arg-OH]
- fall in blood pressure evoked by bradykinin ([1]; bradykinin 1 to 10 nmol/kg i.v.): completely blocked
- fall in blood pressure evoked by kallikrein ([1]; kallikrein 1 to 10 U/kg i.v.): completely blocked
- Pancreatic oedema: Evans blue ([2]; CRL i.v.): 18.21 ± 4.24 μg/g dry wgt
- Pancreatic oedema: water ([2]; CRL i.v.): 3.11 ± 0.33 g/g dry wgt
- Pancreatic oedema: Evans blue ([2]; no CRL i.v.): 20.31 ± 5.80 μg/g dry wgt
- Pancreatic oedema: water ([2]; no CRL i.v.): 2.62 ± 0.23 g/g dry wgt
- CRL induced pancreatic oedema ([2]; result in words): completely inhibited
- Serum Amylase activity ([3]; mean ± SEM): 3.19 ± 0.21 U/ml
- Serum Lipase activity ([3]; nn = not detectable): nn
- increase of Evans blue content in the pancreas [4]: completely inhibited
- increase of water content in the pancreas [4]: completely inhibited
